Measured values as given in publication PMC7440666, “Cryo-EM structure of the human concentrative nucleoside transporter CNT3” (PLoS Biology, 2020).

T1: hCNT3 (full-length wild-type) (Homo sapiens, UniProt Q9HAS3)
T1 construct: gene SLC28A3; full-length, C-terminal Strep-tag, codon-optimized cDNA, baculovirus/Sf9 expression, purified in DDM, homotrimer
T1 sequence (Q9HAS3 1-691): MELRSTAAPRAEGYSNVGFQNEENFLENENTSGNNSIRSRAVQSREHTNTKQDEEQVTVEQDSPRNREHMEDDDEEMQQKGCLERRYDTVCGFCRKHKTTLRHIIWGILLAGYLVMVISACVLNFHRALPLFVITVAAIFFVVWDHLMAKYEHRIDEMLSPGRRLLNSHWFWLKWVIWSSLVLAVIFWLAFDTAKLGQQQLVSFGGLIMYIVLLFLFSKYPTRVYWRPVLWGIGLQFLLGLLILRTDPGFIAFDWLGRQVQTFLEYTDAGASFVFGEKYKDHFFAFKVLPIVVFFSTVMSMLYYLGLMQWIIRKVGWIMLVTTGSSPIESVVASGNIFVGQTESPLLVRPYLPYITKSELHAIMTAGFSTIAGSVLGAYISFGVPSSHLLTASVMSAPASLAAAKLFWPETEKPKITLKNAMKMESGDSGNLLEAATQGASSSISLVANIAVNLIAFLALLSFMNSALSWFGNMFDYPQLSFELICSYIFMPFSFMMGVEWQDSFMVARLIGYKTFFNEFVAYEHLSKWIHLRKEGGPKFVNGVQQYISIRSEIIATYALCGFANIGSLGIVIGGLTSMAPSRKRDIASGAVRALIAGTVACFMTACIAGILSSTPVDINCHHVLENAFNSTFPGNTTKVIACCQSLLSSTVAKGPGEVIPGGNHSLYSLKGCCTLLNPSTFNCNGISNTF

T2: CNT3ins (Δ1–69) (Homo sapiens, UniProt Q9HAS3)
T2 construct: gene SLC28A3; lacks the 69 N-terminal residues, C-terminal Strep-tag, baculovirus/Sf9 expression, purified in DDM for ITC, homotrimer
T2 sequence (Q9HAS3 70-691): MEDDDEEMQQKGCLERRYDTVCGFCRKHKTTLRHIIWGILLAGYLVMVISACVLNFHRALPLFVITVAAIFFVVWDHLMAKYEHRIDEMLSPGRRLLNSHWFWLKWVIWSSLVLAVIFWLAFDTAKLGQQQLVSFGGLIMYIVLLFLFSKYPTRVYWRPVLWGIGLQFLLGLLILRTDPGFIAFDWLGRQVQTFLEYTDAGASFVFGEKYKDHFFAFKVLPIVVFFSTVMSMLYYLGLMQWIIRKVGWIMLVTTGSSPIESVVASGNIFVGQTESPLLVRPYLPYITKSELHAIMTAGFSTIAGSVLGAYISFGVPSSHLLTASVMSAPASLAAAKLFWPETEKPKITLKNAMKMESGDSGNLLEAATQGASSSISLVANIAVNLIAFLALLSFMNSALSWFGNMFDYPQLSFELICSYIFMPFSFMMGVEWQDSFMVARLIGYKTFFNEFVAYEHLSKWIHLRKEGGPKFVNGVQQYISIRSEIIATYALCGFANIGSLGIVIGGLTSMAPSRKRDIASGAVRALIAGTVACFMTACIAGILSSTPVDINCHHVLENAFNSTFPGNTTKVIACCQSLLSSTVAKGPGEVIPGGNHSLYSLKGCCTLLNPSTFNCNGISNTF

T3: hCNT3 (full-length wild-type) (Homo sapiens, UniProt Q9HAS3, N565A)
T3 construct: gene SLC28A3; full-length, C-terminal Strep-tag, codon-optimized cDNA, baculovirus/Sf9 expression, purified in DDM, homotrimer
T3 sequence (Q9HAS3 1-691 N565A): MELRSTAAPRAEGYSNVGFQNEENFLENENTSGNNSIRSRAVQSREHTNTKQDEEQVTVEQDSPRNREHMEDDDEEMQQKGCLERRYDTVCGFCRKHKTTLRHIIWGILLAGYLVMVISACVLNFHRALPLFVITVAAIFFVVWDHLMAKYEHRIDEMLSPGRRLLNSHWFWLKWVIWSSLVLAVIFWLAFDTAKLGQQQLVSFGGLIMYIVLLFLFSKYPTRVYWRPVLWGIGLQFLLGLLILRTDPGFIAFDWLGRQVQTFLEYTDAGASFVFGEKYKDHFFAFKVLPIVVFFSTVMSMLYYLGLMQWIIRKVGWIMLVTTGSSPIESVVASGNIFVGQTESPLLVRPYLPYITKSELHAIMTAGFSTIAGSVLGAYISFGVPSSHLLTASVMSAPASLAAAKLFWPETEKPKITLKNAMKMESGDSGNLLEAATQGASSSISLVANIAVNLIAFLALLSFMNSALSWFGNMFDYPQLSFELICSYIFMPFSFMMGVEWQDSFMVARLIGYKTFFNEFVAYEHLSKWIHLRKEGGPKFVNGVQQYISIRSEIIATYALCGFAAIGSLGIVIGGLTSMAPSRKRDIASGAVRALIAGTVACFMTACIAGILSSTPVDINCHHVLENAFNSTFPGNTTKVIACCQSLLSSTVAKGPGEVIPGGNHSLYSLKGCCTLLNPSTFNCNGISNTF

T4: hCNT3 (full-length wild-type) (Homo sapiens, UniProt Q9HAS3, E343A)
T4 construct: gene SLC28A3; full-length, C-terminal Strep-tag, codon-optimized cDNA, baculovirus/Sf9 expression, purified in DDM, homotrimer
T4 sequence (Q9HAS3 1-691 E343A): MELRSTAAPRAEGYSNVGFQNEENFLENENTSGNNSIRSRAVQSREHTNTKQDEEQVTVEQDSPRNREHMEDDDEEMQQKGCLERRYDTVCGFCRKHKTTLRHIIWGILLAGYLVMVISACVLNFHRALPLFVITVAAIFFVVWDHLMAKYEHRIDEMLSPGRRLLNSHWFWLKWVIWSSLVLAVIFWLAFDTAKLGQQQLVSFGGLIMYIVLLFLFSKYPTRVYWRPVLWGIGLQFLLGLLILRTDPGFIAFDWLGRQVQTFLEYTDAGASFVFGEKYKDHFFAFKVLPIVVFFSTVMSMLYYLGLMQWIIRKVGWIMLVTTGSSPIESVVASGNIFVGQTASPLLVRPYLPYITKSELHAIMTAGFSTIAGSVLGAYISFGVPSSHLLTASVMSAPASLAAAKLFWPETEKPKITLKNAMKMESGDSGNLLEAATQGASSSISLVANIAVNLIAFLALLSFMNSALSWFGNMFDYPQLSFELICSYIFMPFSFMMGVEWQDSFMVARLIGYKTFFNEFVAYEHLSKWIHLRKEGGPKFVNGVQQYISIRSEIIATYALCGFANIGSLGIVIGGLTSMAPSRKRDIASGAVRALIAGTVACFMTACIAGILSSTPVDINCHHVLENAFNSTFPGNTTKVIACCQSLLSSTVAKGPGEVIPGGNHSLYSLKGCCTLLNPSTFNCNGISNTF

B1: CNT3ins, the truncated isoform (Δ1–69) of human concentrative nucleoside transporter 3 (hCNT3) (domain or fragment, UniProt Q9HAS3 70-691, looked up)
chain: MEDDDEEMQQKGCLERRYDTVCGFCRKHKTTLRHIIWGILLAGYLVMVISACVLNFHRALPLFVITVAAIFFVVWDHLMAKYEHRIDEMLSPGRRLLNSHWFWLKWVIWSSLVLAVIFWLAFDTAKLGQQQLVSFGGLIMYIVLLFLFSKYPTRVYWRPVLWGIGLQFLLGLLILRTDPGFIAFDWLGRQVQTFLEYTDAGASFVFGEKYKDHFFAFKVLPIVVFFSTVMSMLYYLGLMQWIIRKVGWIMLVTTGSSPIESVVASGNIFVGQTESPLLVRPYLPYITKSELHAIMTAGFSTIAGSVLGAYISFGVPSSHLLTASVMSAPASLAAAKLFWPETEKPKITLKNAMKMESGDSGNLLEAATQGASSSISLVANIAVNLIAFLALLSFMNSALSWFGNMFDYPQLSFELICSYIFMPFSFMMGVEWQDSFMVARLIGYKTFFNEFVAYEHLSKWIHLRKEGGPKFVNGVQQYISIRSEIIATYALCGFANIGSLGIVIGGLTSMAPSRKRDIASGAVRALIAGTVACFMTACIAGILSSTPVDINCHHVLENAFNSTFPGNTTKVIACCQSLLSSTVAKGPGEVIPGGNHSLYSLKGCCTLLNPSTFNCNGISNTF
notes: human concentrative nucleoside transporter 3 (hCNT3, SLC28A3), truncated isoform lacking the 69 N-terminal residues (Δ1–69); codon-optimised cDNA; density resolved for residues 100–614; also called CNT3ins (Δ1–69); SLC28A3; source: Sf9 insect cells (baculovirus, pFastBac1), purified (StrepTactin Sepharose, Superose 6 SEC) in digitonin or DDM

Legend:
[1] = molecular target: T1, hCNT3 (full-length wild-type); test: isothermal titration calorimetry, one-site model; conditions: read-out: binding affinity
CNT3ins (Δ1–69) = molecular target: T2, CNT3ins (Δ1–69); test: isothermal titration calorimetry, one-site model; conditions: read-out: binding affinity
[2] = molecular target: T3, hCNT3 (full-length wild-type); test: isothermal titration calorimetry, one-site model; format: binding
[3] = molecular target: T4, hCNT3 (full-length wild-type); test: isothermal titration calorimetry, one-site model; conditions: read-out: binding affinity
[4] = molecular target: the molecule itself; test: cryo-EM structure; purified CNT3ins (Δ1–69) at 6 mg/ml in 25 mM Tris pH 8.0, 150 mM NaCl, 0.1% digitonin; nucleoside-free; reconstruction with C3 symmetry

Molecule | Kd [1] [µM] | Kd (CNT3ins (Δ1–69)) [µM] | Kd [2] [µM] | Kd [3] [µM] | stoichiometry N [4]
Nc1ccn([C@@H]2O[C@H](CO)[C@@H](O)[C@H]2O)c(=O)n1 [cytidine] | ~260 |  |  |  | 
Cc1cn([C@H]2C[C@H](O)[C@@H](CO)O2)c(=O)[nH]c1=O [thymidine] | ~603 |  |  |  | 
O=c1ccn([C@@H]2O[C@H](CO)[C@@H](O)[C@H]2O)c(=O)[nH]1 [uridine] | ~325 | ~368 | ~280 | ~1190 | 
B1 |  |  |  |  | 3
